Assay results: BindingDB's records for doi:10.1021/bi1005283 (Merck Research Laboratories, 2010)

Molecular target: T1, Kinesin-like protein KIF11 (Homo sapiens, UniProt P52732)
T1 sequence (P52732 whole entry): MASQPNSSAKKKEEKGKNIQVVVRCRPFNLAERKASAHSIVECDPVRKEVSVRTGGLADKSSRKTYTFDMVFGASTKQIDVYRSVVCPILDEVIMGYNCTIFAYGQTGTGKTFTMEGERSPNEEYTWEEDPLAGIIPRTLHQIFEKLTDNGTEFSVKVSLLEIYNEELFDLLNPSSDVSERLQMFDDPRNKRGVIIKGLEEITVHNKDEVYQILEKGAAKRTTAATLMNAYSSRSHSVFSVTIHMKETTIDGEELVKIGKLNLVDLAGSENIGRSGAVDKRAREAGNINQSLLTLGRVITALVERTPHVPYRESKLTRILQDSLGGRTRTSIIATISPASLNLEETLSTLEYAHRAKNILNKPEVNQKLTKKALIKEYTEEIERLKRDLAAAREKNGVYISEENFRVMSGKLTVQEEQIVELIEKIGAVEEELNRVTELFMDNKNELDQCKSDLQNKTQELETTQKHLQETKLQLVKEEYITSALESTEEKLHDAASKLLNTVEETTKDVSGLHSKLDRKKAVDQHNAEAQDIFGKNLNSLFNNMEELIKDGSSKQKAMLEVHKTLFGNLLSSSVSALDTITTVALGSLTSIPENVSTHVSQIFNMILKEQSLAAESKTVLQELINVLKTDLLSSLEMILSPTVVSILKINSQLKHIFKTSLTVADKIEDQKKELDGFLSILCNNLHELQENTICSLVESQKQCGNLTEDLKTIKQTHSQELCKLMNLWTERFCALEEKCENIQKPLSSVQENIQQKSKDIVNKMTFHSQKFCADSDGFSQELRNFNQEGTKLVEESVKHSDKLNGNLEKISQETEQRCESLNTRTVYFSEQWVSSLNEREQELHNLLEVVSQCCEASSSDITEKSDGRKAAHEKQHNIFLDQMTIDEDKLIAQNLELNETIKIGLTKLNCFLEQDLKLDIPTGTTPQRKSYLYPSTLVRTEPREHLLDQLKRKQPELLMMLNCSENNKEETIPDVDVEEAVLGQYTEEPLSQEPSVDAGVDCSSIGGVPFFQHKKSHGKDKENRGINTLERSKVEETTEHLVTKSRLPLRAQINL
Experiment: Binding Assay
Text: Binding assay using temperature-dependent circular dichroism (TdCD). In TdCD, the loss of protein secondary structure was monitored as a function of temperature. Proteins bound with ligand become more resistant to thermal unfolding compared to the unliganded protein because of the additional stabilization interactions created between the ligand and protein.

Point of comparison: `CSc1ccc(Nc2nc3cc(C(N)=O)ccc3n2Cc2ccccc2C(F)(F)F)cc1` [KSP Inhibitor, 4a], Kd 2 µM. Against it:
- COc1ccc(Nc2nc3cc(C(=O)O)ccc3n2Cc2ccccc2C(F)(F)F)cc1 — 1.7-fold lower, 1.2 µM
- CS(=O)(=O)c1ccc(Nc2nc3cc(C(N)=O)ccc3n2Cc2ccccc2C(F)(F)F)cc1 [KSP Inhibitor, 4b] — within 1.5-fold, 2.5 µM
- O=C(O)c1ccc2c(c1)nc(Nc1ccc(OCc3ccccc3)cc1)n2Cc1ccccc1C(F)(F)F [KSP Inhibitor, 4c] — 7-fold higher, 14 µM
- COc1ccc(Nc2nc3cc(C(=O)O)ccc3n2Cc2ccccc2OC)cc1 [KSP Inhibitor, 4d] — 2.5-fold higher, 5 µM
- NC(=O)c1ccc2c(c1)nc(Nc1ccc(S(N)(=O)=O)cc1)n2Cc1ccccc1C(F)(F)F [KSP Inhibitor, 4e] — 3.3-fold lower, 0.6 µM
- COc1ccc(Nc2nc3cc(C(=O)O)ccc3n2Cc2ccccc2OC(F)(F)F)cc1 [KSP Inhibitor, 4g] — 1.7-fold higher, 3.4 µM
